# From ChEMBL document CHEMBL1201862, “PubChem BioAssay data set” (2004)
#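 Cultured in 96-well plates, cells were exposed to test compound for 48 hours across five concentrations. GI50 is the concentration that inhibits growth by half.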 The source made the active and inactive calls. No stated cut-off is given here; in the data, active = GI50 up to about 1.1 µM and inactive = higher.
# Legend:
# Test in all cases: NCI anticancer screen, dose series, 48 h
# OVCAR-4 = test system: OVCAR-4
# M19-MEL = test system: M19-MEL
# OVCAR-3 = test system: OVCAR-3
# NCI-H460 = test system: NCI-H460
# SK-MEL-28 = test system: SK-MEL-28
# SF-295 = test system: SF-295
# SNB-78 = test system: SNB-78
# HCT-116 = test system: HCT-116
# A498 = test system: A498
# UO-31 = test system: UO-31
# SNB-19 = test system: SNB-19
# RXF 393 = test system: RXF 393
# IGROV-1 = test system: IGROV-1
# KM-20L2 = test system: KM-20L2
# HOP-92 = test system: HOP-92
# DMS-114 = test system: DMS-114
# U-251 = test system: U-251
# HOP-62 = test system: HOP-62
# SF-268 = test system: SF-268
# UACC-257 = test system: UACC-257
# SF-539 = test system: SF-539
# HT-29 = test system: HT-29
# ACHN = test system: ACHN
# SK-OV-3 = test system: SK-OV-3
# UACC-62 = test system: UACC-62
# RPMI-8226 = test system: RPMI-8226
# M14 = test system: M14
# COLO 205 = test system: COLO 205
# LXFL 529 = test system: LXFL 529
# SNB-75 = test system: SNB-75
# SK-MEL-2 = test system: SK-MEL-2
# NCI-H23 = test system: NCI-H23
# OVCAR-5 = test system: OVCAR-5
# KM12 = test system: KM12
# K562 = test system: K562
# Malme-3M = test system: Malme-3M
# OVCAR-8 = test system: OVCAR-8
# A549 = test system: A549
# SN12C = test system: SN12C
# LOX IMVI = test system: LOX IMVI
# HCC 2998 = test system: HCC 2998
# NCI-H522 = test system: NCI-H522
# T47D = test system: T47D
# NCI-H226 = test system: NCI-H226
# SK-MEL-5 = test system: SK-MEL-5
# MOLT-4 = test system: MOLT-4
# MDA-MB-231 = test system: MDA-MB-231
# HL-60 = test system: HL-60
# HCT-15 = test system: HCT-15
# SW-620 = test system: SW-620
# Hs-578T = test system: Hs-578T
# 786-0 = test system: 786-0
# SR = test system: SR
# PC-3 = test system: PC-3
# TK-10 = test system: TK-10
# MDA-MB-435 = test system: MDA-MB-435
# DU-145 = test system: DU-145
# BT-549 = test system: BT-549
# NCI/ADR-RES = test system: NCI/ADR-RES
# MDA-N = test system: MDA-N
# MCF7 = test system: MCF7
# CCRF-CEM = test system: CCRF-CEM
# EKVX = test system: EKVX
# CAKI-1 = test system: CAKI-1
structure (smiles),measurement,setting,value
CCOP(=O)(OCC)/C(C#N)=C/c1cc(O)ccc1O,GI50,OVCAR-4,> 100 µM (inactive)
same,GI50,M19-MEL,> 100 µM (inactive)
same,GI50,OVCAR-3,> 100 µM (inactive)
same,GI50,NCI-H460,> 100 µM (inactive)
same,GI50,SK-MEL-28,> 100 µM (inactive)
same,GI50,SF-295,> 100 µM (inactive)
same,GI50,SNB-78,> 100 µM (inactive)
same,GI50,HCT-116,> 100 µM (inactive)
same,GI50,A498,> 100 µM (inactive)
same,GI50,UO-31,> 100 µM (inactive)
same,GI50,SNB-19,> 100 µM (inactive)
same,GI50,RXF 393,> 100 µM (inactive)
same,GI50,IGROV-1,> 100 µM (inactive)
same,GI50,KM-20L2,> 100 µM (inactive)
same,GI50,HOP-92,> 100 µM (inactive)
same,GI50,DMS-114,> 100 µM (inactive)
same,GI50,U-251,> 100 µM (inactive)
same,GI50,HOP-62,> 100 µM (inactive)
same,GI50,SF-268,> 100 µM (inactive)
same,GI50,UACC-257,> 100 µM (inactive)
same,GI50,SF-539,> 100 µM (inactive)
same,GI50,HT-29,> 100 µM (inactive)
same,GI50,ACHN,> 100 µM (inactive)
same,GI50,SK-OV-3,> 100 µM (inactive)
same,GI50,UACC-62,> 100 µM (inactive)
same,GI50,RPMI-8226,> 100 µM (inactive)
same,GI50,M14,> 100 µM (inactive)
same,GI50,COLO 205,> 100 µM (inactive)
same,GI50,LXFL 529,> 100 µM (inactive)
same,GI50,SNB-75,79.3 µM (inactive)
same,GI50,SK-MEL-2,> 100 µM (inactive)
same,GI50,NCI-H23,> 100 µM (inactive)
same,GI50,OVCAR-5,> 100 µM (inactive)
same,GI50,KM12,> 100 µM (inactive)
same,GI50,K562,> 100 µM (inactive)
same,GI50,Malme-3M,> 100 µM (inactive)
C[C@@]12CCC(=O)C=C1CC[C@H]1C2=CC[C@]2(C)C1CC[C@@]2(C)O (stereo not given in full),GI50,OVCAR-8,> 100 µM (inactive)
same,GI50,OVCAR-4,25.2 µM (inactive)
same,GI50,OVCAR-3,34.1 µM (inactive)
same,GI50,A549,50.4 µM (inactive)
same,GI50,SN12C,88.7 µM (inactive)
same,GI50,NCI-H460,43.6 µM (inactive)
same,GI50,SK-MEL-28,> 100 µM (inactive)
same,GI50,SF-295,32.3 µM (inactive)
same,GI50,LOX IMVI,> 100 µM (inactive)
same,GI50,HCC 2998,49 µM (inactive)
same,GI50,NCI-H522,28.1 µM (inactive)
same,GI50,HCT-116,52 µM (inactive)
same,GI50,A498,> 100 µM (inactive)
same,GI50,T47D,73.5 µM (inactive)
same,GI50,NCI-H226,> 100 µM (inactive)
same,GI50,UO-31,41.9 µM (inactive)
same,GI50,SK-MEL-5,41.6 µM (inactive)
same,GI50,MOLT-4,38.4 µM (inactive)
same,GI50,SNB-19,> 100 µM (inactive)
same,GI50,MDA-MB-231,67.5 µM (inactive)
same,GI50,RXF 393,> 100 µM (inactive)
same,GI50,HL-60,25.4 µM (inactive)
same,GI50,IGROV-1,79.3 µM (inactive)
same,GI50,HCT-15,36.2 µM
same,GI50,SW-620,40.6 µM (inactive)
same,GI50,Hs-578T,38.2 µM (inactive)
same,GI50,HOP-92,> 100 µM (inactive)
same,GI50,786-0,> 100 µM (inactive)
same,GI50,SR,34.8 µM (inactive)
same,GI50,U-251,41.3 µM (inactive)
same,GI50,PC-3,41.5 µM (inactive)
same,GI50,HOP-62,67.8 µM (inactive)
same,GI50,TK-10,> 100 µM (inactive)
same,GI50,SF-268,75.2 µM (inactive)
same,GI50,MDA-MB-435,23.3 µM (inactive)
same,GI50,DU-145,> 100 µM (inactive)
same,GI50,UACC-257,69.2 µM (inactive)
same,GI50,SF-539,61.9 µM (inactive)
same,GI50,BT-549,33.1 µM (inactive)
same,GI50,HT-29,37.9 µM (inactive)
same,GI50,ACHN,> 100 µM (inactive)
same,GI50,SK-OV-3,54.6 µM (inactive)
same,GI50,UACC-62,37 µM (inactive)
same,GI50,RPMI-8226,54.7 µM (inactive)
same,GI50,NCI/ADR-RES,34.7 µM (inactive)
same,GI50,M14,50.6 µM (inactive)
same,GI50,COLO 205,35 µM (inactive)
same,GI50,SNB-75,66.1 µM (inactive)
same,GI50,SK-MEL-2,38 µM (inactive)
same,GI50,MDA-N,23 µM (inactive)
same,GI50,NCI-H23,66.8 µM (inactive)
same,GI50,OVCAR-5,> 100 µM (inactive)
same,GI50,KM12,29.7 µM (inactive)
same,GI50,K562,38.4 µM (inactive)
same,GI50,Malme-3M,> 100 µM (inactive)
same,GI50,MCF7,57.3 µM (inactive)
same,GI50,CCRF-CEM,40.4 µM (inactive)
same,GI50,EKVX,> 100 µM (inactive)
same,GI50,CAKI-1,48.3 µM (inactive)
